According to patent US20160166565A1, “TREATMENT OF MULTIPLE SCLEROSIS WITH COMBINATION OF LAQUINIMOD AND FLUPIRTINE” (Teva Pharmaceutical Industries, Ltd., priority 2013, published 2016):
Where two headings read alike, the source gives them in different places.

System: MOG-induced EAE Mice
Experiment: MOG-induced EAE in mice, laquinimod alone or in combination with flupirtine
Format: in vivo, mice (C57BL/6)
Conditions: oral gavage qd, Day 1 to 30; for inhibition at 30 mg/kg: Mus musculus, vs vehicle
[1] = 0.5% MC + Flupirtin 30 mg/kg/day

CCOC(=O)Nc1ccc(NCc2ccc(F)cc2)nc1N [Flupirtin, ethyl {2-amino-6-[(4-fluorobenzyl)amino]pyridin-3-yl}carbamate]
Duration [1]: 17.0 days
GMS value (group mean score) [1]: 1.9
INC (Incidence) [1]: 15/15
MMS value (mean maximal score) [1]: 3.1
MORT (Mortality) [1]: 0/15
Onset [1]: 13.3 days
inhibition at 30 mg/kg (0.5% MC + Flupirtin 30 mg/kg/day, read-out: INH 1 (percent inhibition according to incidence)): 0%
inhibition at 30 mg/kg (0.5% MC + Flupirtin 30 mg/kg/day, read-out: INH 2 (percent inhibition according to MMS)): 11.4%
inhibition at 30 mg/kg (0.5% MC + Flupirtin 30 mg/kg/day, read-out: INH 3 (percent inhibition / activity according to GMS)): 17.4%

CCN(C(=O)c1c(O)c2c(Cl)cccc2n(C)c1=O)c1ccccc1 [LAQ, 5-chloro-N-ethyl-4-hydroxy-1-methyl-2-oxo-N-phenyl-1,2-dihydroquinoline-3-carboxamide]
Duration (LAQ 1 mg/kg/day + 0.5% MC): 16.0 days
GMS value (group mean score) (LAQ 1 mg/kg/day + 0.5% MC): 1.9
INC (Incidence) (LAQ 1 mg/kg/day + 0.5% MC): 15/15
MMS value (mean maximal score) (LAQ 1 mg/kg/day + 0.5% MC): 3.4
MORT (Mortality) (LAQ 1 mg/kg/day + 0.5% MC): 0/15
Onset (LAQ 1 mg/kg/day + 0.5% MC): 14.8 days
Duration (LAQ 5 mg/kg/day + 0.5% MC): 14.7 days
GMS value (group mean score) (LAQ 5 mg/kg/day + 0.5% MC): 1.6
INC (Incidence) (LAQ 5 mg/kg/day + 0.5% MC): 14/15
MMS value (mean maximal score) (LAQ 5 mg/kg/day + 0.5% MC): 2.9
MORT (Mortality) (LAQ 5 mg/kg/day + 0.5% MC): 0/15
Onset (LAQ 5 mg/kg/day + 0.5% MC): 15.0 days
